SMILES strings stand for the structures. *1 amine or outer side, *2 acyl side, *3 side chain or, on linkers, in order; H or OH if unused. Where a SMILES comes first, the peptide text is derived from it. Side-chain parts run from the residue outwards. [ ]: non-standard residue; d: D form. The star is where a group is joined. C20 diacid = O=C(O)CCCCCCCCCCCCCCCCCCC(=O)*; C18 diacid = O=C(O)CCCCCCCCCCCCCCCCC(=O)*; αMePhe(2-F) = C[C@](N)(Cc1ccccc1F)C(=O)O; γGlu = O=C(O)[C@H](CCC(=O)[*:2])N[*:1]; αMeY = C[C@](N)(Cc1ccc(O)cc1)C(=O)O; 4Pal = N[C@@H](Cc1ccncc1)C(=O)O; αMeL = CC(C)C[C@](C)(N)C(=O)O; Iva = CC[C@](C)(N)C(=O)O; AEEA = NCCOCCOCC(=O)O; Aib = CC(C)(N)C(=O)O

T1 sequence (P43220 24-463): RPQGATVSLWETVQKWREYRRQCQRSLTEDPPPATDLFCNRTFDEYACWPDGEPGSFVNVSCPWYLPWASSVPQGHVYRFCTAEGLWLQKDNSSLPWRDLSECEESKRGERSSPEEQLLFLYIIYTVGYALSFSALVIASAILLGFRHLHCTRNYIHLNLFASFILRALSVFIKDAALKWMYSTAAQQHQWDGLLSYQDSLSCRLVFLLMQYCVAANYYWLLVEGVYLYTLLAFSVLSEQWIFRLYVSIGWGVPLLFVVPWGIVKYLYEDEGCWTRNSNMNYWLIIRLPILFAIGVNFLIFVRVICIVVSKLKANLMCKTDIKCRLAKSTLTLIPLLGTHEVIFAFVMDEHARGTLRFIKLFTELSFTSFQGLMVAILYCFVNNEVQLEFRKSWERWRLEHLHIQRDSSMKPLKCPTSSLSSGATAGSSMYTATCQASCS

The experiment addresses T1, human GLP-1R (Homo sapiens, UniProt P43220).
T1 construct: expressed in transfected cells; crude membranes
The experiment in a line: [125I]-GLP-1 binding, SPA with WGA beads, 0.1% bacitracin. The conditions noted are these: geometric mean, read-out: hGLP1R Ki. The method in brief:
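Binding buffer was 25 mM HEPES pH 7.4 with 2.5 mM CaCl2, 1 mM MgCl2, 0.1% (w/v) bacitracin, 0.003% Tween-20 and EDTA-free protease inhibitors. Four-parameter regression gave IC50, converted to Ki (geometric mean, SEM, n independent days).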
Consider `CC[C@H](C)[C@H](NC(=O)[C@H](CO)NC(=O)[C@H](Cc1ccc(O)cc1)NC(=O)[C@H](CC(=O)O)NC(=O)[C@H](CO)NC(=O)[C@@H](NC(=O)[C@](C)(CC)NC(=O)[C@@H](NC(=O)CNC(=O)[C@H](CCC(=O)O)NC(=O)C(C)(C)NC(=O)[C@@H](N)Cc1ccc(O)cc1)[C@@H](C)O)[C@@H](C)CC)C(=O)N[C@@](C)(CC(C)C)C(=O)N[C@@H](CC(C)C)C(=O)N[C@@H](CC(=O)O)C(=O)N[C@@H](CCCCN)C(=O)N[C@@H](CCCCNC(=O)COCCOCCNC(=O)COCCOCCNC(=O)CC[C@H](NC(=O)CCCCCCCCCCCCCCCCCCC(=O)O)C(=O)O)C(=O)N[C@@H](Cc1c[nH]cn1)C(=O)N[C@@H](CCC(N)=O)C(=O)NC(C)(C)C(=O)N[C@@H](CC(=O)O)C(=O)N[C@@H](Cc1ccccc1)C(=O)N[C@H](C(=O)N[C@@H](CCC(=O)O)C(=O)N[C@@H](Cc1ccncc1)C(=O)N[C@@H](CC(C)C)C(=O)N[C@@H](CC(C)C)C(=O)N[C@@H](CCC(=O)O)C(=O)N[C@@H](C)C(=O)NCC(=O)N1CCC[C@H]1C(=O)N[C@@H](CO)C(=O)N[C@@H](CO)C(=O)NCC(=O)N[C@@H](C)C(=O)N1CCC[C@H]1C(=O)N1CCC[C@H]1C(=O)N1CCC[C@H]1C(=O)N[C@@H](CO)C(N)=O)C(C)C` [Example 88] (H-Y[Aib]EGT[Iva]ISDYSI[αMeL]LDKK([AEEA-AEEA-γGlu-C20 diacid])HQ[Aib]DFVE[4Pal]LLEAGPSSGAPPPS-NH2), for which the Ki (as a rule, the equilibrium dissociation constant of an inhibitor or competing ligand from its target) amounted to 261 nM.

For `CC[C@H](C)[C@H](NC(=O)[C@H](CC(C)C)NC(=O)[C@@H](NC(=O)CNC(=O)[C@H](CCC(=O)O)NC(=O)C(C)(C)NC(=O)[C@@H](N)Cc1ccc(O)cc1)[C@@H](C)O)C(=O)N[C@@H](CO)C(=O)N[C@@H](CC(=O)O)C(=O)N[C@@H](Cc1ccc(O)cc1)C(=O)N[C@@H](CO)C(=O)N[C@H](C(=O)N[C@@](C)(CC(C)C)C(=O)N[C@@H](CC(C)C)C(=O)N[C@@H](CC(=O)O)C(=O)N[C@@H](CCCCN)C(=O)N[C@@H](CCCCNC(=O)COCCOCCNC(=O)COCCOCCNC(=O)CC[C@H](NC(=O)CCCCCCCCCCCCCCCCCCC(=O)O)C(=O)O)C(=O)N[C@@H](Cc1c[nH]cn1)C(=O)N[C@@H](CCC(N)=O)C(=O)NC(C)(C)C(=O)N[C@@H](CC(=O)O)C(=O)N[C@@H](Cc1ccccc1)C(=O)N[C@H](C(=O)N[C@@H](CCC(=O)O)C(=O)N[C@@H](Cc1ccncc1)C(=O)N[C@@H](CC(C)C)C(=O)N[C@@H](CC(C)C)C(=O)N[C@@H](CCC(=O)O)C(=O)N[C@@H](C)C(=O)NCC(=O)N1CCC[C@H]1C(=O)N[C@@H](CO)C(=O)N[C@@H](CO)C(=O)NCC(=O)N[C@@H](C)C(=O)N1CCC[C@H]1C(=O)N1CCC[C@H]1C(=O)N1CCC[C@H]1C(=O)N[C@@H](CO)C(N)=O)C(C)C)[C@@H](C)CC` [Example 89] (H-Y[Aib]EGTLISDYSI[αMeL]LDKK([AEEA-AEEA-γGlu-C20 diacid])HQ[Aib]DFVE[4Pal]LLEAGPSSGAPPPS-NH2), the inhibitory constant (Ki) came to 294 nM.

For the compound `CC[C@H](C)[C@H](NC(=O)[C@H](Cc1ccccc1)NC(=O)[C@@H](NC(=O)CNC(=O)[C@H](CCC(=O)O)NC(=O)C(C)(C)NC(=O)[C@@H](N)Cc1ccc(O)cc1)[C@@H](C)O)C(=O)N[C@@H](CO)C(=O)N[C@@H](CC(=O)O)C(=O)N[C@@H](Cc1ccc(O)cc1)C(=O)N[C@@H](CO)C(=O)N[C@H](C(=O)N[C@@](C)(CC(C)C)C(=O)N[C@@H](CC(C)C)C(=O)N[C@@H](CC(=O)O)C(=O)N[C@@H](CCCCN)C(=O)N[C@@H](CCCCNC(=O)COCCOCCNC(=O)COCCOCCNC(=O)CC[C@H](NC(=O)CCCCCCCCCCCCCCCCCCC(=O)O)C(=O)O)C(=O)N[C@@H](Cc1c[nH]cn1)C(=O)N[C@@H](CCC(N)=O)C(=O)NC(C)(C)C(=O)N[C@@H](CC(=O)O)C(=O)N[C@@H](Cc1ccccc1)C(=O)N[C@H](C(=O)N[C@@H](CCC(=O)O)C(=O)N[C@@](C)(Cc1ccc(O)cc1)C(=O)N[C@@H](CC(C)C)C(=O)N[C@@H](CC(C)C)C(=O)N[C@@H](CCC(=O)O)C(=O)N[C@@H](C)C(=O)NCC(=O)N1CCC[C@H]1C(=O)N[C@@H](CO)C(=O)N[C@@H](CO)C(=O)NCC(=O)N[C@@H](C)C(=O)N1CCC[C@H]1C(=O)N1CCC[C@H]1C(=O)N1CCC[C@H]1C(=O)N[C@@H](CO)C(N)=O)C(C)C)[C@@H](C)CC` [Example 90] (H-Y[Aib]EGTFISDYSI[αMeL]LDKK([AEEA-AEEA-γGlu-C20 diacid])HQ[Aib]DFVE[αMeY]LLEAGPSSGAPPPS-NH2), the inhibition constant Ki amounted to 102 nM.

As for `CC[C@H](C)[C@H](NC(=O)[C@H](Cc1ccccc1)NC(=O)[C@@H](NC(=O)CNC(=O)[C@H](CCC(=O)O)NC(=O)C(C)(C)NC(=O)[C@@H](N)Cc1ccc(O)cc1)[C@@H](C)O)C(=O)N[C@@H](CO)C(=O)N[C@@H](CC(=O)O)C(=O)N[C@@H](Cc1ccc(O)cc1)C(=O)N[C@@H](CO)C(=O)N[C@H](C(=O)N[C@@](C)(CC(C)C)C(=O)N[C@@H](CC(C)C)C(=O)N[C@@H](CC(=O)O)C(=O)N[C@@H](CCCCN)C(=O)N[C@@H](CCCCNC(=O)COCCOCCNC(=O)COCCOCCNC(=O)CC[C@H](NC(=O)CCCCCCCCCCCCCCCCCCC(=O)O)C(=O)O)C(=O)N[C@@H](Cc1c[nH]cn1)C(=O)N[C@@H](CCC(N)=O)C(=O)NC(C)(C)C(=O)N[C@@H](CC(=O)O)C(=O)N[C@@H](Cc1ccccc1)C(=O)N[C@H](C(=O)N[C@@H](CCC(=O)O)C(=O)N[C@@](C)(Cc1ccc(O)cc1)C(=O)N[C@@H](CC(C)C)C(=O)N[C@@H](CC(C)C)C(=O)N[C@@H](CCC(=O)O)C(=O)NCC(=O)NCC(=O)N1CCC[C@H]1C(=O)N[C@@H](CO)C(=O)N[C@@H](CO)C(=O)NCC(=O)N[C@@H](C)C(=O)N1CCC[C@H]1C(=O)N1CCC[C@H]1C(=O)N1CCC[C@H]1C(=O)N[C@@H](CO)C(N)=O)C(C)C)[C@@H](C)CC` [Example 91] (H-Y[Aib]EGTFISDYSI[αMeL]LDKK([AEEA-AEEA-γGlu-C20 diacid])HQ[Aib]DFVE[αMeY]LLEGGPSSGAPPPS-NH2), the Ki amounted to 37.4 nM.

On to `CC[C@H](C)[C@H](NC(=O)[C@H](CCCCN)NC(=O)[C@H](CC(=O)O)NC(=O)[C@H](CC(C)C)NC(=O)[C@](C)(CC(C)C)NC(=O)[C@@H](NC(=O)[C@H](CO)NC(=O)[C@H](Cc1ccc(O)cc1)NC(=O)[C@H](CC(=O)O)NC(=O)[C@H](CO)NC(=O)[C@@H](NC(=O)[C@H](Cc1ccccc1)NC(=O)[C@@H](NC(=O)CNC(=O)[C@H](CCC(=O)O)NC(=O)C(C)(C)NC(=O)[C@@H](N)Cc1ccc(O)cc1)[C@@H](C)O)[C@@H](C)CC)[C@@H](C)CC)C(=O)N[C@@H](Cc1c[nH]cn1)C(=O)N[C@@H](CCC(N)=O)C(=O)NC(C)(C)C(=O)N[C@@H](CC(=O)O)C(=O)N[C@@H](Cc1ccccc1)C(=O)N[C@H](C(=O)N[C@@H](CCC(=O)O)C(=O)N[C@@H](Cc1ccc(O)cc1)C(=O)N[C@@H](CCCCNC(=O)COCCOCCNC(=O)COCCOCCNC(=O)CC[C@H](NC(=O)CCCCCCCCCCCCCCCCCCC(=O)O)C(=O)O)C(=O)N[C@@H](CC(C)C)C(=O)N[C@@H](CCC(=O)O)C(=O)N[C@@H](CCC(N)=O)C(=O)NCC(=O)N1CCC[C@H]1C(=O)N[C@@H](CO)C(=O)N[C@@H](CO)C(=O)NCC(=O)N[C@@H](C)C(=O)N1CCC[C@H]1C(=O)N1CCC[C@H]1C(=O)N1CCC[C@H]1C(=O)N[C@@H](CO)C(N)=O)C(C)C` [Example 92] (H-Y[Aib]EGTFISDYSI[αMeL]LDKIHQ[Aib]DFVEYK([AEEA-AEEA-γGlu-C20 diacid])LEQGPSSGAPPPS-NH2), for which the inhibition constant (Ki) is > 902 nM.

In the case of `CC[C@H](C)[C@H](NC(=O)[C@H](CCCCN)NC(=O)[C@H](CC(=O)O)NC(=O)[C@H](CC(C)C)NC(=O)[C@H](CC(C)C)NC(=O)[C@@H](NC(=O)[C@H](CO)NC(=O)[C@H](Cc1ccc(O)cc1)NC(=O)[C@H](CC(=O)O)NC(=O)[C@H](CO)NC(=O)[C@@H](NC(=O)[C@H](Cc1ccccc1)NC(=O)[C@@H](NC(=O)CNC(=O)[C@H](CCC(=O)O)NC(=O)[C@@H](C)NC(=O)[C@@H](N)Cc1ccc(O)cc1)[C@@H](C)O)[C@@H](C)CC)[C@@H](C)CC)C(=O)N[C@@H](C)C(=O)N[C@@H](CCC(N)=O)C(=O)NC(C)(C)C(=O)N[C@@H](CC(=O)O)C(=O)N[C@@H](Cc1ccccc1)C(=O)N[C@H](C(=O)N[C@@H](CC(N)=O)C(=O)N[C@@H](Cc1c[nH]c2ccccc12)C(=O)N[C@@H](CCCCNC(=O)COCCOCCNC(=O)COCCOCCNC(=O)CC[C@H](NC(=O)CCCCCCCCCCCCCCCCC(=O)O)C(=O)O)C(=O)N[C@@H](CC(C)C)C(=O)N[C@@H](C)C(=O)N[C@@H](CCC(N)=O)C(=O)NCC(=O)N1CCC[C@H]1C(=O)N[C@@H](CO)C(=O)N[C@@H](CO)C(=O)NCC(=O)N[C@@H](C)C(=O)N1CCC[C@H]1C(=O)N1CCC[C@H]1C(=O)N1CCC[C@H]1C(=O)N[C@@H](CO)C(N)=O)C(C)C` [Example 93] (H-Y[dA]EGTFISDYSILLDKIAQ[Aib]DFVNWK([AEEA-AEEA-γGlu-C18 diacid])LAQGPSSGAPPPS-NH2), the inhibition constant Ki is > 909 nM.

For the compound `CC[C@H](C)[C@H](NC(=O)[C@H](CO)NC(=O)[C@H](Cc1ccc(O)cc1)NC(=O)[C@H](CC(=O)O)NC(=O)[C@H](CO)NC(=O)[C@@H](NC(=O)[C@](C)(Cc1ccccc1F)NC(=O)[C@@H](NC(=O)CNC(=O)[C@H](CCC(=O)O)NC(=O)C(C)(C)NC(=O)[C@@H](N)Cc1ccc(O)cc1)[C@@H](C)O)[C@@H](C)CC)C(=O)N[C@@H](C)C(=O)N[C@@H](CC(C)C)C(=O)N[C@@H](CC(=O)O)C(=O)N[C@@H](CCCCN)C(=O)N[C@H](C(=O)N[C@@H](Cc1c[nH]cn1)C(=O)N[C@@H](CCC(N)=O)C(=O)NC(C)(C)C(=O)N[C@@H](CCC(=O)O)C(=O)N[C@@H](Cc1ccccc1)C(=O)N[C@H](C(=O)N[C@@H](CC(N)=O)C(=O)N[C@@H](Cc1ccc(O)cc1)C(=O)N[C@@H](CCCCNC(=O)COCCOCCNC(=O)COCCOCCNC(=O)CC[C@H](NC(=O)CCCCCCCCCCCCCCCCC(=O)O)C(=O)O)C(=O)N[C@@H](CC(C)C)C(=O)N[C@@H](C)C(=O)NCC(=O)NCC(=O)N1CCC[C@H]1C(=O)N[C@@H](CO)C(=O)N[C@@H](CO)C(=O)NCC(=O)N[C@@H](C)C(=O)N1CCC[C@H]1C(=O)N1CCC[C@H]1C(=O)N1CCC[C@H]1C(=O)N[C@@H](CO)C(N)=O)C(C)C)[C@@H](C)CC` [Example 94] (H-Y[Aib]EGT[αMePhe(2-F)]ISDYSIALDKIHQ[Aib]EFVNYK([AEEA-AEEA-γGlu-C18 diacid])LAGGPSSGAPPPS-NH2), the inhibition constant Ki was > 909 nM.
